Test systems include RPMI-8226; HCT-116; A498; SK-MEL-2; OVCAR-5; SK-MEL-5; NCI-H460; CAKI-1; SK-OV-3; HCT-15; HL-60; LOX IMVI; SNB-19; KM12; OVCAR-3; SF-539; EKVX; UACC-62; OVCAR-8; UO-31.
Assay in all cases: DTP human tumour cell line panel, 48 h

The structures appear in SMILES notation.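 In this assay, cells in 96-well plates receive the compound at five concentrations for 48 hours. Endpoints are linearly interpolated between the surrounding concentrations. GI50 marks 50% less growth.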 Calls of active or inactive are those of the source. Rule as the data show it: active = GI50 up to about 1.1 µM and inactive = higher. Some results are limits rather than exact numbers.

On to `O=C(NN1C(=O)CS(=O)(=O)C1c1ccc(C(F)(F)F)cc1)c1ccncc1` (stereo not drawn), for which the GI50 with RPMI-8226, in the assay on HCT-116, with A498, in the assay on SK-MEL-2, in the assay with OVCAR-5 and in the assay on SK-MEL-5 was > 100 µM (inactive) throughout. In addition, the GI50 in the assay on NCI-H460 was > 100 µM (inactive); with CAKI-1, > 100 µM (inactive); in the assay on SK-OV-3, > 100 µM (inactive); in the assay with HCT-15 it was over 100 µM; with HL-60, > 100 µM (inactive); with LOX IMVI, > 100 µM (inactive). The GI50 with SNB-19 and with KM12 was > 100 µM (inactive) throughout.
Take `CC1(C)CCc2ccc(OCCC(=O)O)cc2O1`: the GI50 with RPMI-8226, in the assay with OVCAR-3, with SF-539, in the assay with EKVX, with HCT-116 and with SK-MEL-2 was > 100 µM (inactive) in each case. Moreover, the GI50 with OVCAR-5, in the assay with UACC-62, with OVCAR-8, in the assay on SK-MEL-5, in the assay on NCI-H460 and in the assay with CAKI-1 was > 100 µM (inactive) each time. The GI50 is > 100 µM (inactive) with SK-OV-3; over 100 µM with HCT-15; > 100 µM (inactive) with HL-60; > 100 µM (inactive) in the assay with LOX IMVI; > 100 µM (inactive) in the assay with UO-31; > 100 µM (inactive) in the assay with KM12.
With `COCCOCOC(C)(C)[C@H](CCO)O[Si](c1ccccc1)(c1ccccc1)C(C)(C)C`, the GI50 with RPMI-8226 is 6.17 µM (inactive); in the assay on OVCAR-3 it was 10.2 µM (inactive); in the assay with SF-539, 14.1 µM (inactive); with EKVX, 13.5 µM (inactive); in the assay with HCT-116, 3.67 µM (inactive); in the assay with A498, 16.7 µM (inactive). In addition, the GI50 is > 10 µM (inactive) in the assay with SK-MEL-2; 14.1 µM (inactive) in the assay with OVCAR-5; 12 µM (inactive) in the assay with UACC-62; 10.4 µM (inactive) in the assay on OVCAR-8; 13.4 µM (inactive) in the assay on SK-MEL-5; 5.15 µM (inactive) with NCI-H460. Moreover, the GI50 was 12.5 µM (inactive) in the assay with SK-OV-3; 4.68 µM in the assay on HCT-15; 2.39 µM (inactive) in the assay with HL-60; 8.36 µM (inactive) in the assay with LOX IMVI; 13 µM (inactive) in the assay with UO-31; 13.2 µM (inactive) in the assay on SNB-19. Moreover, the GI50 in the assay on KM12 was 11.5 µM (inactive).
For the compound `CN(C)C(CN)CC1=C(CC(CN)N(C)C)CCC1` (stereo not drawn), the GI50 in the assay with RPMI-8226, with OVCAR-3, with SF-539, in the assay on EKVX, with HCT-116 and with A498 was > 100 µM (inactive) in each case. In addition, the GI50 in the assay on SK-MEL-2, in the assay with OVCAR-5, in the assay with UACC-62, in the assay with OVCAR-8, in the assay with SK-MEL-5 and in the assay on NCI-H460 was > 100 µM (inactive) each time. Also, the GI50 in the assay on CAKI-1 is > 100 µM (inactive); in the assay with SK-OV-3 it was > 100 µM (inactive); in the assay on HCT-15 it was over 100 µM; in the assay on HL-60, > 100 µM (inactive); in the assay with LOX IMVI, > 100 µM (inactive); in the assay on UO-31, > 100 µM (inactive). Moreover, the GI50 in the assay on SNB-19 and with KM12 was > 100 µM (inactive) throughout.
On to `COc1ccc(-c2c(C#N)c(NC(=S)NC(=O)c3ccccc3)nc3c2CCCC3)cc1OC`, for which the GI50 in the assay on RPMI-8226 is 42 µM (inactive); in the assay with OVCAR-3 it was 99.5 µM (inactive); in the assay on SF-539, 30.2 µM (inactive); with EKVX it was 24.5 µM (inactive); in the assay on HCT-116 it was > 100 µM (inactive); with OVCAR-5, 98.2 µM (inactive). Further, the GI50 with UACC-62 was 44.5 µM (inactive); in the assay on OVCAR-8 it was 48.5 µM (inactive); in the assay with SK-MEL-5, 34.6 µM (inactive); with NCI-H460, 35 µM (inactive); in the assay with CAKI-1, 49.5 µM (inactive); in the assay on SK-OV-3 it was > 100 µM (inactive). Further, the 50% growth inhibitory concentration (GI50) in the assay with HCT-15 was over 100 µM; in the assay on HL-60, 34.1 µM (inactive); in the assay with LOX IMVI, 49.7 µM (inactive); with UO-31, 35.2 µM (inactive); in the assay with SNB-19, 68.2 µM (inactive); in the assay on KM12 it was > 100 µM (inactive).
`CC1(C)N/C(=C\C=O)C(C)(C)N1O`: the GI50 in the assay on RPMI-8226, with OVCAR-3, with SF-539, in the assay on EKVX, in the assay on HCT-116 and with SK-MEL-2 was > 100 µM (inactive) each time. Besides, the GI50 with OVCAR-5, with UACC-62, in the assay with OVCAR-8, with SK-MEL-5, with NCI-H460 and in the assay with CAKI-1 was > 100 µM (inactive) in each case. In addition, the GI50 is > 100 µM (inactive) in the assay on SK-OV-3; over 100 µM with HCT-15; > 100 µM (inactive) in the assay on HL-60; > 100 µM (inactive) in the assay on LOX IMVI; > 100 µM (inactive) in the assay on UO-31; > 100 µM (inactive) in the assay with SNB-19. In the assay with KM12, the GI50 is > 100 µM (inactive).
Take `COc1cc2c(cc1OC)C(Cc1c3ccccc3cc3ccccc13)N(C)CC2` (stereo not drawn): the GI50 with RPMI-8226 is 13.9 µM (inactive); in the assay on OVCAR-3, 27.7 µM (inactive); in the assay on SF-539 it was 19.5 µM (inactive); in the assay with EKVX, 25.6 µM (inactive); in the assay on HCT-116, 14.9 µM (inactive); with A498, 17.4 µM (inactive). The GI50 with SK-MEL-2 was 17.6 µM (inactive); in the assay on OVCAR-5 it was 13.5 µM (inactive); in the assay with UACC-62, 17.8 µM (inactive); in the assay with OVCAR-8 it was 26.5 µM (inactive); in the assay with SK-MEL-5 it was 17.3 µM (inactive); in the assay on NCI-H460, 20 µM (inactive). The GI50 with CAKI-1 was 25.1 µM (inactive); in the assay with SK-OV-3 it was 22.4 µM (inactive); in the assay on HCT-15 it was 30.2 µM; in the assay on HL-60 it was 10.4 µM (inactive); in the assay on LOX IMVI it was 18 µM (inactive); in the assay on UO-31, 13 µM (inactive). The GI50 is 22.2 µM (inactive) in the assay on SNB-19 and 16.3 µM (inactive) in the assay on KM12.

For orientation: GI50 means the concentration at which growth is held to half of that of the control.

These data come from ChEMBL document CHEMBL1201862, “PubChem BioAssay data set” (2004).
